{"source": "patent US20150329582A1", "about": "“SMALL MOLECULE COMPOUNDS SELECTIVE AGAINST GRAM-NEGATIVE BACTERIAL INFECTIONS” (priority 2014, published 2015)", "key": {"[1]": {"test_system": "E. coli expressing neomycin phosphotransferase-1 (NPT)", "test": "Poly(U)-directed polyphenylalanine synthesis, with or without neomycin phosphotransferase-1", "format": "cell-based", "details": "for antibiotic activity against E. coli expressing NPT: E. coli transformed with resistance plasmid expressing neomycin phosphotransferase-1", "experimental": "Assay for Polyuridylic Acid [Poly(U)]-Directed-Polyphenylalanine Synthesis.\nThe reaction mixture contained 400 ug of E. coli B transfer RNA (General Biochemicals, Chagrin Falls, Ohio) per mL, 5 mM spermidine, and [^14C]leucine was replaced with 13 μM [^14C]phenylalanine ([…]). A poly(UUU) RNA template [5′-[…](UUU)12UAAGCAGG-3′ (SEQ ID NO: 1) was used at a concentration of 100 ug per assay. (Legault-Demare and Chambliss, Journal of Bacteriology, 1974, 120(3): 1300-1307).\nThe assay for polyuridylic acid [poly(U)]-directed-polyphenylalanine synthesis was conducted in the presence or absence of neomycin phosphotransferase-1 (NPT). Wild type E. coli and E. coli transformed with a resistance plasmid expressing neomycin phosphotransferase-1 (NPT) were treated with Mangrolide A and translational error frequency determined."}, "[2]": {"test_system": "30S rRNA ribosomal mutant, A1408G", "test": "Error frequency assay with 30S rRNA ribosomal mutant", "format": "biochemical", "details": "increasing concentrations of Mangrolide A", "experimental": "(§1) The error frequency assay was conducted to determine whether a 30S rRNA ribosomal mutant, A1408G is susceptible to Mangrolide A. The mutation site is shown in FIG. 8A. […] (FIG. 8B) When wild type or A1408G (S30) mutant bacteria were grown in wells of a microwell plate containing no additions (No—negative control), Ampicillin or Tetracyclin in the presence or absence of Mangrolide A, A1408G (S30) mutants proliferated similarly to the proliferation of wild type bacteria grown in the absence of Mangrolide A. (FIG. 8C)."}, "[3]": {"test_system": "Staphyloccus aureus", "test": "Minimal Inhibitory Concentration (MIC) test", "format": "cell-based", "details": "Gram positive"}, "[4]": {"test_system": "Bacillus subtillis", "test": "Minimal Inhibitory Concentration (MIC) test", "format": "cell-based", "details": "Gram positive"}, "[5]": {"test_system": "Gram-negative bacterial pathogens (Burkholderia cenocepacia J2315, Burkholderia cenocepacia, Pseudomonas aeruginosa PAO1, Acinetobacter baumannii BAA-1793 and …)", "test": "Minimal Inhibitory Concentration (MIC) test", "format": "cell-based", "experimental": "Minimal Inhibitory Concentration (MIC) Test\nThe MIC test was performed by adding 2.0 mL of an antibiotic solution (100 ug/mL) to the first tube (out of, e.g., 9 tubes). 1.0 mL of sterile broth was added to all other tubes. 1.0 mL was transferred from the first tube to the second tube. Using a separate pipette, the contents of this tube were mixed and 1.0 mL was transferred to the third tube. Dilutions were continued in this manner through tube number 8. 1.0 mL was removed from tube 8 and discarded. […] Colonies of the culture were suspended to an appropriate turbidity to be tested in 5.0 mL of Mueller-Hinton broth to give a slightly turbid suspension. This suspension was diluted by aseptically pipetting 0.2 mL of the suspension into 40 mL of Mueller-Hinton broth. 1.0 mL of the diluted culture suspension was added to each of the tubes. The final concentration of the antibiotic was one-half of the original concentration in each tube. All tubes were incubated at 35° C. overnight. […]\nAntibiotic activity, measured as MIC in μg/mL, of natural Mangrolide A and a synthetic Mangrolide A O-methyl ether derivative were compared against the following Gram-negative microbial pathogens: Burkholderia cenocepacia J2315, Burkholderia cenocepacia, Pseudomonas aeruginosa PAO1, Acinetobacter Baumannii BAA-1793, Acinetobacter baumannii BAA-1605, Escherichia coli (EHEC), and Klebsiella pneumoniae."}, "[6]": {"test_system": "A1408G (S30) mutant bacteria", "test": "Growth of wild type or A1408G (S30) mutant bacteria in the presence of Mangrolide A", "format": "cell-based", "details": "grown with or without Mangrolide A, compared with wild type", "experimental": "as §1"}, "[7]": {"test_system": "S-30 extract from E. coli (30S ribosomal extract)", "test": "Error frequency in vitro protein synthesis assay (amino acid misincorporation)", "format": "biochemical", "details": "increasing concentrations (μM) of Mangrolide A, 14C-phenylalanine / 3H-leucine incorporation", "experimental": "Error Frequency In Vitro Protein Synthesis Assay Using Natural mRNA\n72 mM Tris-hydrochloride pH 7.5, 72 mM NH4Cl, 12 mM magnesium acetate, 2.4 mM dithiothreitol (Sigma Co.), 2 mM adenosine triphosphate (ATP), 0.1 mM guanosine triphosphate (GTP), 5 mM phosphoenolpyruvate (Sigma Co.), 20 ug of pyruvate kinase (Sigma Co.) per mL, a mixture of 19 amino acids (each at 72 uM), 13 uM [^14C]leucine (50 counts/min per picomole), 50 ug of calcium folinate (S.P.E.C.I.A., Paris, France) per mL, 0.2 mM DFP, and 0.6 mM Mg Titriplex in a final volume of 0.125 mL per tube. mRNA (1300 μg), an S-30 extract from E. coli (200 μg), or ribosomes plus S-150 (200 μg) and crude initiation factors were added. Incubations were for 30 minutes at 37° C. The extent of amino acid incorporation was determined by measuring the radioactivity remaining insoluble after treatment with hot trichloroacetic acid (90° C. for 15 min). To reduce endogenous mRNA, ribosomes plus 5-150 or S-30 extracts were preincubated just prior to use at 37° C. for 15 min in the reaction mixture described above without [^14C]leucine, the energy generating system and added mRNA.\nAssay for Polyuridylic Acid [Poly(U)]-Directed-Polyphenylalanine Synthesis. […]"}}}
{"smiles": "CC[C@H]1/C=C(\\C)[C@@H](O)C/C=C/C=C(\\CO)C(=O)O[C@H](C(C)C)C/C=C(C)/C=C(\\C)[C@@H]1O[C@@H]1O[C@H](C)[C@@H](O[C@@H]2O[C@H](C)[C@@H](OC)[C@H](O)[C@H]2OC)[C@H](N(C)C)[C@H]1O", "note": "[Mangrolide A, mangrolide A]", "values": [{"measurement": "antibiotic activity against E. coli expressing NPT", "setting": "[1]", "value": "inactivated by the expressed neomycin phosphotransferase-1 activity"}, {"measurement": "antibiotic activity against E. coli expressing NPT", "setting": "[1]; listed as mangrolide", "value": "inactivated by neomycin phosphotransferase-1"}, {"measurement": "translational error frequency in E. coli expressing NPT", "setting": "[1]; grown in the presence of Mangrolide A", "value": "error frequency comparable to wild type E. coli"}, {"measurement": "misincorporation of amino acids with A1408G mutant", "setting": "[2]", "value": "limited misincorporation was induced"}, {"measurement": "MIC", "setting": "[3]", "value": 32, "unit": "µg/mL"}, {"measurement": "MIC", "setting": "[4]", "value": "> 32", "unit": "µg/mL"}, {"measurement": "antibiotic potency compared with the Mangrolide A O-methyl ether derivative", "setting": "[5]; all Gram-negative bacteria tested", "value": "more potent antibiotic against all Gram-negative bacteria tested"}, {"measurement": "MIC range", "setting": "[5]; range over the Gram-negative bacterial pathogens tested", "value": "0.25 to 1", "unit": "µg/mL"}, {"measurement": "susceptibility of A1408G mutant bacteria (growth)", "setting": "[6]", "value": "A1408G mutant is resistant"}, {"measurement": "susceptibility of A1408G mutant bacteria (growth)", "setting": "[6]; listed as mangrolide", "value": "A1408G mutant strain was able to grow on plates with mangrolide, unlike the wildtype"}, {"measurement": "misincorporation of amino acids during protein synthesis", "setting": "[7]", "value": "increased misincorporation of amino acids"}, {"measurement": "misincorporation of amino acids during protein synthesis", "setting": "[7]; listed as mangrolide", "value": "induces misincorporation of amino acids"}]}
